# According to patent US7858621B2 (Amorepacific Corporation, priority 2006, dated 2010):
# Target: T1, vanilloid receptor (Rattus norvegicus, UniProt O35433)
# T1 construct: DRG nerve cells from the primary culture of 2 days were equilibrated; endogenous in cells; host or cells: primary culture of dorsal root ganglion neurons from neonatal SD rats
# Assay: 45Ca influx test in cultured neonatal rat DRG neurons, inhibition of capsaicin response
# Format: cell-based
# Details: neonatal rat DRG neurons, capsaicin 0.5 μM, 45Ca influx; read-out: Antagonist Calcium Uptake Test (IC50)
# How it was run: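 45Ca influx measured by scintillation counting of SDS-eluted neurons after 10 min at room temperature with test compound, 0.5 μM capsaicin (final) and 10 μCi/ml 45Ca in Ca/Mg-free HEPES-HBSS pH 7.4. Cells: primary DRG neurons from newborn SD rats, cultured 2 days with NGF and Ara-C.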
# T1 sequence (O35433 whole entry): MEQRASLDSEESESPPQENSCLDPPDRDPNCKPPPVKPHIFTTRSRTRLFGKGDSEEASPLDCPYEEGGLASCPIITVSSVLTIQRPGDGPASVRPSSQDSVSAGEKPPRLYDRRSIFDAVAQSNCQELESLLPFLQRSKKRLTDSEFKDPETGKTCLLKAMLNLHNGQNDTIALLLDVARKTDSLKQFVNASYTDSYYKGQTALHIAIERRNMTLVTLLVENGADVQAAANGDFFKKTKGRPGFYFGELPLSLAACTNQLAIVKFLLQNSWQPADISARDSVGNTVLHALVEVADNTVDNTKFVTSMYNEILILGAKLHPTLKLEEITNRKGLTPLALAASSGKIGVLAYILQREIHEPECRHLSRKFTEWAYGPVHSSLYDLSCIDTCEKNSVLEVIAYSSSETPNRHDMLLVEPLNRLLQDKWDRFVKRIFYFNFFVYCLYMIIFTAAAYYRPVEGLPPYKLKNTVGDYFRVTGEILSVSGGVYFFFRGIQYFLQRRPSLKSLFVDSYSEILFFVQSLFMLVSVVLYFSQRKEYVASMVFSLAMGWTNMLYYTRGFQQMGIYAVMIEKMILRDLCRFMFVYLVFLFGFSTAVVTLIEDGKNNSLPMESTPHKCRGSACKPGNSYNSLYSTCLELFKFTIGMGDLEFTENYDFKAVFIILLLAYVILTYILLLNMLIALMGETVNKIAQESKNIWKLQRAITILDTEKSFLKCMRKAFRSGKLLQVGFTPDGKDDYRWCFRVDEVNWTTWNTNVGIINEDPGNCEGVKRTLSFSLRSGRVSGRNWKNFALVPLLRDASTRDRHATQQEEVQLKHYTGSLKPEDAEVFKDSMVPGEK
row,SMILES,IC50
1,"C[C@@H](NC(=O)/C=C/c1ccc(C(F)(F)F)nc1-c1cccc(F)c1)c1ccc(NS(C)(=O)=O)c(F)c1 [Example 181, (R)—N-[1-(3-Fluoro-4-methanesulfonylamino-phenyl)-ethyl]-3-[2-(3-fluoro-phenyl)-6-trifluoromethyl-pyridin-3-yl]-acrylamide]",0.27 µM
2,"CS(=O)(=O)Nc1c(F)cc(CNC(=O)/C=C/c2ccc(C(F)(F)F)nc2CCc2ccccc2)cc1C(F)(F)F [Example 189, N-(3-Fluoro-4-methanesulfonylamino-5-trifluoromethyl-benzyl)-3-(2-phenethyl-6-trifluoromethyl-pyridin-3-yl)-acrylamide]",0.4 µM
3,"CCCNc1nc(C(F)(F)F)ccc1/C=C/C(=O)NCc1cc(F)c(NS(C)(=O)=O)cc1F [Example 248, N-(2,5-Difluoro-4-methanesulfonylamino-benzyl)-3-(2-propylamino-6-trifluoromethyl-pyridin-3-yl)-acrylamide]",0.12 µM
4,"CC(C)(C)c1cc(C(F)(F)F)c(/C=C/C(=O)NCc2ccc(NS(C)(=O)=O)c(F)c2)cn1 [Example 17, 3-(6-tert-Butyl-4-trifluoromethyl-pyridin-3-yl)-N-(3-fluoro-4-methanesulfonylamino-benzyl)-acrylamide]",0.57 µM
5,"CCCCc1nc(C(F)(F)F)ccc1/C=C/C(=O)N[C@H](C)c1ccc(NS(C)(=O)=O)c(F)c1 [Example 193, (R)-3-(2-Butyl-6-trifluoromethyl-pyridin-3-yl)-N-[1-(3-fluoro-4-methanesulfonylamino-phenyl)-ethyl]-acrylamide]",0.042 µM
6,"CS(=O)(=O)Nc1ccc(CNC(=O)/C=C/c2ccc(Br)nc2)cc1F [Example 20, 3-(6-Bromo-pyridin-3-yl)-N-(3-fluoro-4-methanesulfonylamino-benzyl)-acrylamide]",> 10 µM
7,"CCC/C(=C/C(=O)N[C@H](C)c1cc(F)c(NS(C)(=O)=O)c(F)c1)c1ccc(C(F)(F)F)nc1CCC [Example 277, (Z)-3-(2-Propyl-6-trifluoromethyl-pyridin-3-yl)-hex-2-enoic acid [1-(3,5-difluoro-4-methanesulfonylamino-phenyl)-ethyl]-amide]",0.32 µM
8,"CCCCOc1nc(C(F)(F)F)ccc1/C=C/C(=O)NCc1cc(F)c(NS(C)(=O)=O)c(C(F)(F)F)c1 [Example 168, 3-(2-Butoxy-6-trifluoromethyl-pyridin-3-yl)-N-(3-fluoro-4-methanesulfonylamino-5-trifluoromethyl-benzyl)-acrylamide]",1.8 µM
9,"CS(=O)(=O)Nc1c(F)cc(CNC(=O)/C=C/c2ccc(C(F)(F)F)nc2Oc2ccccc2)cc1C#N [Example 105, N-(3-Cyano-5-fluoro-4-methanesulfonylamino-benzyl)-3-(2-phenoxy-6-trifluoromethyl-pyridin-3-yl)-acrylamide]",0.63 µM
10,"C#Cc1cc(CNC(=O)/C=C/c2ccc(C(F)(F)F)nc2N2CCCCC2)cc(F)c1NS(C)(=O)=O [Example 24, N-(3-Ethynyl-5-fluoro-4-methanesulfonylamino-benzyl)-3-(2-piperid-1-yl-6-trifluoromethyl-pyridinyl-3-yl)-acrylamide]",0.34 µM
11,"CCC(C)Oc1nc(C(F)(F)F)ccc1/C=C/C(=O)NCc1cc(F)c(NS(C)(=O)=O)c(C#N)c1 (stereo not drawn) [Example 106, 3-(2-sec-Butoxy-6-trifluoromethyl-pyridin-3-yl)-N-(3-cyano-5-fluoro-4-methanesulfonylamino-benzyl)-acrylamide]",0.083 µM
12,"Cc1cc(CNC(=O)/C=C/c2ccc(C(F)(F)F)nc2NC(C)C)cc(F)c1NS(C)(=O)=O [Example 220, N-(3-Fluoro-4-methanesulfonylamino-5-methyl-benzyl)-3-(2-isopropylamino-6-trifluoromethyl-pyridin-3-yl)-acrylamide]",0.071 µM
13,"Cc1ccc(OCC(=O)NCc2ccc(NS(C)(=O)=O)c(F)c2)c(CO)n1 [Example 31, N-(3-Fluoro-4-methanesulfonylamino-benzyl)-2-(2-hydroxymethyl-6-methyl-pyridin-3-yloxy)-acetamide]",> 10 µM
14,"CCCCNc1nc(C(F)(F)F)ccc1/C=C/C(=O)NCc1ccc(NS(C)(=O)=O)c(F)c1 [Example 88, 3-(2-Butylamino-6-trifluoromethyl-pyridin-3-yl)-N-(3-fluoro-4-methanesulfonylamino-benzyl)-acrylamide]",0.4 µM
15,"C#Cc1cc(CNC(=O)/C=C/c2ccc(C(F)(F)F)nc2SC(C)C)cc(F)c1NS(C)(=O)=O [Example 177, N-(3-Ethynyl-5-fluoro-4-methanesulfonylamino-benzyl)-3-(2-isopropylthio-6-trifluoromethyl-pyridin-3-yl)-acrylamide]",0.2 µM
16,"CC(C)Nc1nc(C(F)(F)F)ccc1/C=C/C(=O)NCc1ccc(NS(C)(=O)=O)c(F)c1 [Example 121, N-(3-Fluoro-4-methanesulfonylamino-benzyl)-3-(2-isopropylamino-6-trifluoromethyl-pyridin-3-yl)-acrylamide]",0.12 µM
17,"CS(=O)(=O)Nc1ccc(CNC(=O)/C=C/c2ccc(C(F)(F)F)nc2OCC(F)(F)F)cc1F [Example 87, N-(3-Fluoro-4-methanesulfonylamino-benzyl)-3-[2-(2,2,2-trifluoro-ethoxy)-6-trifluoromethyl-pyridin-3-yl]-acrylamide]",2.2 µM
18,"COCCNc1nc(C(F)(F)F)ccc1/C=C/C(=O)NCc1cc(F)c(NS(C)(=O)=O)c(F)c1 [Example 204, N-(3,5-Difluoro-4-methanesulfonylamino-benzyl)-3-[2-(2-methoxy-ethylamino)-6-trifluoromethyl-pyridin-3-yl]-acrylamide]",0.17 µM
19,"CCCCc1nc(C(F)(F)F)ccc1C#CC(=O)NCc1cc(F)c(NS(C)(=O)=O)c(F)c1 [Example 261, 3-(2-Butyl-6-trifluoromethyl-pyridin-3-yl)-propynoic acid 3,5-difluoro-4-methanesulfonylamino-benzylamide]",0.35 µM
20,"CCCCNc1nc(C(F)(F)F)ccc1/C=C/C(=O)N[C@H](C)c1cc(F)c(NS(C)(=O)=O)c(F)c1 [Example 238, (R)-3-(2-Butylamino-6-trifluoromethyl-pyridin-3-yl)-N-[(1R)-(3,5-difluoro-4-methanesulfonylamino-phenyl)-ethyl]-acrylamide]",0.045 µM
21,"C#Cc1cc(CNC(=O)COc2ccc(Cl)nc2)cc(F)c1NS(C)(=O)=O [Example 35, 2-(6-Chloro-pyridin-3-yloxy)-N-(3-ethynyl-5-fluoro-4-methanesulfonylamino-benzyl)-acetamide]",> 10 µM
22,"C#Cc1cc(CNC(=O)/C=C/c2ccc(C(F)(F)F)nc2Oc2ccc(F)cc2)cc(F)c1NS(C)(=O)=O [Example 82, N-(3-Ethynyl-5-fluoro-4-methanesulfonylamino-benzyl)-3-[2-(4-fluoro-phenoxy)-6-trifluoromethyl-pyridin-3-yl]-acrylamide]",0.6 µM
23,"C[C@@H](NC(=O)/C=C/c1ccc(C(F)(F)F)nc1NCc1ccccc1)c1ccc(NS(C)(=O)=O)c(F)c1 [Example 195, (R)-3-(2-Benzylamino-6-trifluoromethyl-pyridin-3-yl)-N-[1-(3-fluoro-4-methanesulfonylamino-phenyl)-ethyl]-acrylamide]",0.067 µM
24,"C#Cc1cc(CNC(=O)/C=C/c2ccc(C(F)(F)F)nc2NCc2ccccc2)cc(F)c1NS(C)(=O)=O [Example 196, 3-(2-Benzylamino-6-trifluoromethyl-pyridin-3-yl)-N-(3-ethynyl-5-fluoro-4-methanesulfonylamino-benzyl)-acrylamide]",0.076 µM
